Experimental data taken from patent publication US20050282745A1, “Non-mammalian GnRH analogs and uses thereof in regulation of fertility and pregnancy” (priority 2001, published 2005).
Non-standard residues stand in square brackets, D forms with d. Residues, ends and D or L forms follow the SMILES beside them. pGlu = O=C1CC[C@@H](C(=O)O)N1; azaGly = NNC(=O)O

Tests used:
[1] = tested on: human term placental explants; assay: Static explant culture, release of hCG, progesterone, PGE2; assay type: cell-based
Description: The biological activity of the newly synthesized non-mammalian GnRH analogs was studied using a static implant culture system. This system allows for inexpensive extended activity studies. Mammalian GnRH action on the human placenta release of hCG, progesterone and prostaglandins were defined using this system. Replicate cultures were studied, thus allowing for comparison of different doses of each non-mammalian GnRH analog to mammalian GnRH (SEQ ID NO: 5), as well as direct competition assays. […] These studies were repeated using different human placentas. Siler-Khodr T M, Khodr G S, Valenzuela G, Rhode J 1986 Gonadotropin-releasing hormone effects on placental hormones during gestation: II. Progesterone, estrone, estradiol and estriol. Biol Reprod 34:255-264; Siler-Khodr T M, Khodr G S, Valenzuela G, Rhode J 1986 Gonadotropin-releasing hormone effects on placental hormones during gestation: 1 Alpha-human chorionic gonadotropin, human chorionic gonadotropin and human chorionic somatomammotropin. Biol Reprod 34:245-254; Siler-Khodr T M, Khodr G S, Valenzuela G, Harper J, Rhode J 1986 GnRH effects on placental hormones during gestation. 111 Prostaglandin E, prostaglandin F, and 13, 14-dihydro-15-keto-prostaglandin F. Biol Reprod 35:312-319.
In these and additional studies, an explant culture system was used to determine the effect of mammalian GnRH (SEQ ID NO: 5), chicken II GnRH (SEQ ID NO: 6), or the D-Arg(6)-chicken II GnRH-aza-Gly(10)-amide analog (SEQ ID NO: 2) on the release of the hCG, progesterone, and prostaglandin E2. Human term placentas were dissected free of membranes, minced into fragments of 5 mm, rinsed in medium, and a total weight of ˜100 mg (20 explants) was placed on a sterile filter paper resting on an organ culture grid such that they touched the surface of the culture medium, but were not immersed in it. The medium contained penicillin, streptomycin, and fungizone at 100 U/mL, 100 μg/mL, and 2.5 μg/mL respectively with and without varying doses of GnRH isoforms or analogs was added to each Petri dish. Triplicate chambers for each media were made and incubated at 37 C in a humidified chamber with an atmosphere of 5% CO2 and 95% air. Spent media were collected and replaced after 2 hours, 24 hours, and 48 hour of culture and stored frozen at −20° C. until assayed for hormones. HCG, progesterone, and PGE2 were measured using specific double antibody procedures as described previously. The chicken II GnRH analog (SEQ ID NO: 2) was studied using four different human term placentas, and the native chicken II GnRH isoform was also studied using one human term placenta. Gibbons J M, Mitnick M, Chieffo V 1975 In vitro biosynthesis, of TSH- and LH-releasing factors by the human placenta. Am J Obstet Gynecol 121:127-131.

[2] = tested on: human granulosa cells receptor; assay: Human granulosa cell receptor binding
Description: Due to the limited number of cells it was not possible to precisely define the affinity of this receptor.

[3] = tested on: human placental GnRH receptor; assay: Placental GnRH receptor binding, 125I-Buserelin label; details: Buserelin label
Procedure: The newly synthesized non-mammalian GnRH analogs and other commercially available mammalian GnRH analogs were used in placental receptors binding and enzyme stability study described here. […] GnRH receptors were purified from the membrane fractions from placentas. The purification procedure for the placental GnRH receptor was performed using a modification of the method described by Bramley et al., which reference is specifically incorporated herein by reference for the purpose. Addition of enzyme inhibitors for the endogenous C-ase-1 were used as well as agents for receptor stabilization. Initially, receptor-binding assays using ^125I-Buserelin as label were performed. The competitive binding of each of the analogs was studied over a dose range of 10^−11 to 10^−6 M. Incubation was at room temperature and receptor bound label was precipitated with polyethylene glycol. Specific and non-specific binding was determined. The data was subjected to Scatchard analysis. The non-mammalian GnRH analogs' ability to bind to the placental GnRH receptor was compared to that for synthetic mammalian GnRH (SEQ ID NO: 5), Buserelin (SEQ ID NO: 10) and other mammalian analogs. […] This way, the receptor affinity for that analog could be precisely determined. Receptors from three different term placentas were used to study each of these analogs. […] Bramley T A, McPhie C A, Menzies G S 1994 Human placental gonadotropin-releasing hormone (GnRH) binding sites: 111. […] Placenta 15:733-745.
In these and additional studies, placental GnRH receptors were purified from human term placentas after homogenization in 40 mM Tris (pH 7.4) and filtered through cheesecloth, followed by an initial centrifugation at 1,000×g for 10 minutes. The resulting supernatant was, again, centrifuged at 35,000×g for 30 minutes and the membrane pellet was collected and resuspended in Tris buffer with 0.3 M sucrose. The protein concentration was determined. Membranes were stored frozen at −20 C until use. Before use, placental membranes were diluted to 5,000 μg/mL with Tris buffer containing 0.5% BSA and 50 U/mL bacitracin. […] Following incubation at room temperature for 4 hours, the bound and free hormones were separated using polyethylene glycol precipitation, followed by centrifugation. The binding affinity for each GnRH isoform or analog was calculated using the double reciprocal plot of bound versus free ligand. Each study was done using three different human term placental tissues.
Receptor assays were performed by incubating human term placental GnRH receptors with varying concentrations of GnRH or its analogs in the presence of ^125I-Buserelin. The reaction was stopped and the bound hormone precipitated with polyethylene glycol.

- receptor binding potency compared with chicken II GnRH isoform or Buserelin ([3]; Example II): 2 fold
- receptor binding potency compared with mammalian GnRH ([3]; Example II): 60 fold
- Kd ([3]; term placental membranes, read-out: dissociation constant (Kd)): 175 ± 59 nM
SMILES: N=C(N)NCCC[C@@H](NC(=O)[C@H](Cc1c[nH]cn1)NC(=O)[C@H](CO)NC(=O)[C@H](Cc1c[nH]c2ccccc12)NC(=O)[C@H](Cc1c[nH]cn1)NC(=O)[C@@H]1CCC(=O)N1)C(=O)N[C@@H](Cc1c[nH]c2ccccc12)C(=O)N[C@@H](Cc1ccc(O)cc1)C(=O)N1CCC[C@H]1C(=O)NNC(N)=O [D-Arg(6)-chicken II GnRH-aza-Gly(10)-amide] ([pGlu]HWSH[dR]WYP[azaGly]-NH2)
- progesterone release at higher concentrations [1]: also inhibited
- effect on hCG at higher concentrations ([1]; 1-9 μM): inhibition of hCG
- PGE2 release ([1]; 2 and 24 hours): not significantly changed
- hCG release after 2, 24 and 48 hours of treatment ([1]; P<0.05): significant dose-related inhibition
- stimulation of hCG ([1]; first two hours, lowest concentration 250 nM): as much as a three fold stimulation
- hCG in presence of exogenous GnRH ([1]; three placentas, later studies): inhibition of hCG
- receptor binding [2]: receptor binding for the GnRH analog was observed
